This passage reports EC50 results from US10730863B2, “Bridged bicyclic compounds as farnesoid X receptor modulators” (BRISTOL-MYERS SQUIBB COMPANY, priority 2017, dated 2020).

This test addresses FXR (Homo sapiens (Human), UniProt Q96RI1). Put plainly: FXR EC50 (FXR agonist activity reported with each example). Format: cell-based.

SMILES strings stand for the structures. pEC50: −log10 of the molar value.

FXR, sequence (Q96RI1 262-486): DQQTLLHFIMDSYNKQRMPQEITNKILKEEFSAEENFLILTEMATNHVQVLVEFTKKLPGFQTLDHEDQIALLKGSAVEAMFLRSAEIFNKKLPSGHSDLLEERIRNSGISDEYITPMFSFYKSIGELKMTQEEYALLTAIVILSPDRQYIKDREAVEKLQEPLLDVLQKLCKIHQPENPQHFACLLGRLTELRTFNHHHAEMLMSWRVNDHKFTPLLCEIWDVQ

One may read the pEC50 as the EC50 on a negative log10 scale, so that one unit is a factor of ten. Lower therefore signals a large EC50. The compound `O=C(O)c1ccnc(C#CC23CCC(OCc4c(-c5c(Cl)cccc5Cl)noc4C4CC4)(CC2)CC3)c1` [Example 132, 2-((4-((5-cyclopropyl-3-(2,6-dichlorophenyl)isoxazol-4-yl)methoxy)bicyclo[2.2.2]octan-1-yl)ethynyl)isonicotinic acid] showed a pEC50 of 5.46.

In turn, `O=C(O)c1ccc(OCC23CCC(OCc4c(-c5c(Cl)cncc5Cl)noc4C4CC4)(CC2)CC3)nc1` [Example 114, 6-((4-((5-cyclopropyl-3-(3,5-dichloropyridin-4-yl)isoxazol-4-yl)methoxy)bicyclo[2.2.2]octan-1-yl)methoxy)nicotinic acid] showed a negative logarithm of the EC50 (pEC50) of 6.85.

On to `O=C(O)c1ccc2nc(OCC34CCC(C=Cc5c(-c6c(Cl)cccc6Cl)noc5C5CC5)(CC3)CC4)sc2c1` [Example 192], for which the pEC50 is 8.14.

`O=C(O)c1cccc(OCC23CCC(OCc4c(-c5c(Cl)cccc5Cl)noc4C4CC4)(CC2)CC3)c1F` [Example 96, 3-((4-((5-cyclopropyl-3-(2,6-dichlorophenyl)isoxazol-4-yl)methoxy)bicyclo[2.2.2]octan-1-yl)methoxy)-2-fluorobenzoic acid]: the pEC50 was 6.92.

Compound `O=C(O)c1csc(C23CCC(COCc4c(-c5c(Cl)cccc5Cl)noc4C4CC4)(CC2)CC3)n1` [Example 162, 2-(4-(((5-cyclopropyl-3-(2,6-dichlorophenyl)isoxazol-4-yl)methoxy)methyl)bicyclo[2.2.2]octan-1-yl)thiazole-4-carboxylic acid] gave a pEC50 of 5.89.

As for `O=C(O)c1cc(OC2CCC2)c2cc(OCC34CCC(OCc5c(-c6c(Cl)cncc6Cl)noc5C5CC5)(CC3)CC4)cc(F)c2n1` [Example 308, 4-cyclobutoxy-6-((4-((5-cyclopropyl-3-(3,5-dichloropyridin-4-yl)isoxazol-4-yl)methoxy)bicyclo[2.2.2]octan-1-yl)methoxy)-8-fluoroquinoline-2-carboxylic acid], the pEC50 is 7.92.

In turn, `O=C(O)C1CC1c1noc(C23CCC(OCc4c(-c5c(Cl)cccc5Cl)noc4C4CC4)(CC2)CC3)n1` (stereo not shown) [Example 266, 2-(5-(4-((5-cyclopropyl-3-(2,6-dichlorophenyl)isoxazol-4-yl)methoxy)bicyclo[2.2.2]octan-1-yl)-1,2,4-oxadiazol-3-yl)cyclopropane-1-carboxylic acid] had a negative logarithm of the EC50 (pEC50) of 6.14.

The compound `COc1c(C(=O)O)cccc1-c1noc(C23CCC(OCc4c(-c5c(Cl)cncc5Cl)noc4C4CC4)(CC2)CC3)n1` [Example 237, 3-(5-(4-((5-cyclopropyl-3-(3,5-dichloropyridin-4-yl)isoxazol-4-yl)methoxy)bicyclo[2.2.2]octan-1-yl)-1,2,4-oxadiazol-3-yl)-2-methoxybenzoic acid] had a pEC50 of 7.57.

As to `Cc1nc(OCC23CCC(OCc4c(-c5c(Cl)cncc5Cl)noc4C4CC4)(CC2)CC3)sc1C(=O)O` [Example 318], the pEC50 was 6.74.

In the case of `CN1CCN(c2ccc(C(=O)O)c3ccc(C45CCC(OCc6c(-c7c(Cl)cncc7Cl)noc6C6CC6)(CC4)CC5)nc23)CC1` [Example 413], the pEC50 is 5.82.

In turn, `O=C(O)c1c(F)ccc(-c2noc(C34CCC(OCc5c(-c6c(Cl)cccc6Cl)noc5C5CC5)(CC3)CC4)n2)c1F` [Example 68, 3-(5-(4-((5-Cyclopropyl-3-(2,6-dichlorophenyl)isoxazol-4-yl)methoxy)bicyclo[2.2.2]octan-1-yl)-1,2,4-oxadiazol-3-yl)-2,6-difluorobenzoic acid] gave a pEC50 of 6.60.

`O=C(O)c1cccc2nc(C34CCC(/C=C\c5c(-c6c(Cl)cccc6Cl)noc5C5CC5)(CC3)CC4)sc12` [Example 502, (Z)-2-(4-(2-(5-cyclopropyl-3-(2,6-dichlorophenyl)isoxazol-4-yl)vinyl)bicyclo[2.2.2]octan-1-yl)benzo[d]thiazole-7-carboxylic acid] had a negative-log EC50 (pEC50) of 5.82.

`O=C(O)c1cccc(-c2noc(C34CCC(/C=C/c5c(-c6c(Cl)cncc6Cl)noc5C5CC5)(CC3)CO4)n2)c1` [Example 467, (E)-3-(5-(4-(2-(5-cyclopropyl-3-(3,5-dichloropyridin-4-yl)isoxazol-4-yl)vinyl)-2-oxabicyclo[2.2.2]octan-1-yl)-1,2,4-oxadiazol-3-yl)benzoic acid] gave a negative-log EC50 (pEC50) of 6.59.

As for `COC(=O)c1ccc(C23CCC(CNc4c(-c5c(Cl)cccc5Cl)noc4C4CC4)(CC2)CO3)cc1` [Intermediate 203A, methyl 4-(4-(((5-cyclopropyl-3-(2,6-dichlorophenyl)isoxazol-4-yl)amino)methyl)-2-oxabicyclo[2.2.2]octan-1-yl)benzoate], the pEC50 is 5.55.

Regarding `O=C(O)c1cc2ccc(OCC34CCC(OCc5c(-c6c(Cl)cncc6Cl)noc5C5CC5)(CC3)CC4)cc2cn1` [Example 287], the pEC50 was 7.02.

In turn, `O=C(O)c1ccc(F)c(C(O)C23CCC(OCc4c(-c5c(Cl)cccc5Cl)noc4C4CC4)(CC2)CC3)c1` (stereo not shown) [Example 121, 3-((4-((5-cyclopropyl-3-(2,6-dichlorophenyl)isoxazol-4-yl)methoxy)bicyclo[2.2.2]octan-1-yl)(hydroxy)methyl)-4-fluorobenzoic acid] gave a negative logarithm of the EC50 (pEC50) of 5.82.

For `O=C(O)c1cnc(OCC23CCC(OCc4c(-c5c(Cl)cncc5Cl)noc4C4CC4)(CC2)CC3)cc1C(F)(F)F` [Example 283], the negative-log EC50 (pEC50) is 7.82.

On to `O=C(O)c1cc(OCC23CCC(/C=C/c4c(-c5c(Cl)cncc5Cl)noc4C4CC4)(CC2)CO3)cc(OC(F)F)c1` [Example 499, (E)-3-((4-(2-(5-cyclopropyl-3-(3,5-dichloropyridin-4-yl)isoxazol-4-yl)vinyl)-2-oxabicyclo[2.2.2]octan-1-yl)methoxy)-5-(difluoromethoxy)benzoic acid], for which the negative logarithm of the EC50 (pEC50) was 6.80.

In the case of `O=C(O)c1ncc(OCC23CCC(OCc4c(-c5c(Cl)cncc5Cl)noc4C4CC4)(CC2)CC3)cc1OC1CC1` [Example 340], the pEC50 was 7.34.

The compound `CS(=O)(=O)NC(=O)c1cc(-c2noc(C34CCC(/C=C/c5c(-c6c(Cl)cncc6Cl)noc5C5CC5)(CC3)CC4)n2)cc(C(F)(F)F)c1` [Example 440, (E)-3-(5-(4-(2-(5-cyclopropyl-3-(3,5-dichloropyridin-4-yl)isoxazol-4-yl)vinyl)bicyclo[2.2.2]octan-1-yl)-1,2,4-oxadiazol-3-yl)-N-(methylsulfonyl)-5-(trifluoromethyl)benzamide] had a pEC50 of 6.40.

`O=C(O)c1ccc(C(F)(F)F)c2nc(C34CCC(OCc5c(-c6c(Cl)cncc6Cl)noc5C5CC5)(CC3)CC4)ccc12` [Example 398] showed a negative-log EC50 (pEC50) of 7.52.

`COc1ccc(-c2noc(C34CCC(OCc5c(-c6c(Cl)cnn6C)noc5C5CC5)(CC3)CC4)n2)cc1C(=O)O` [Example 273, 5-(5-(4-((3-(4-chloro-1-methyl-1H-pyrazol-5-yl)-5-cyclopropylisoxazol-4-yl)methoxy)bicyclo[2.2.2]octan-1-yl)-1,2,4-oxadiazol-3-yl)-2-methoxybenzoic acid] showed a pEC50 of 5.48.

Compound `COc1cc(OCC23CCC(OCc4c(-c5c(Cl)cncc5Cl)noc4C4CC4)(CC2)CC3)cnc1C(=O)O` [Example 335, 5-((4-((5-cyclopropyl-3-(3,5-dichloropyridin-4-yl)isoxazol-4-yl)methoxy)bicyclo[2.2.2]octan-1-yl)methoxy)-3-methoxypicolinic acid] had a negative logarithm of the EC50 (pEC50) of 6.77.

In turn, `O=C(O)c1cc(-c2noc(C34CCC(OCc5c(-c6c(Cl)cncc6Cl)noc5C5CC5)(CC3)CC4)n2)ccc1C(F)(F)F` [Example 254, 5-(5-(4-((5-cyclopropyl-3-(3,5-dichloropyridin-4-yl)isoxazol-4-yl)methoxy)bicyclo[2.2.2]octan-1-yl)-1,2,4-oxadiazol-3-yl)-2-(trifluoromethyl)benzoic acid] gave a negative logarithm of the EC50 (pEC50) of 5.70.

The compound `O=C(O)C1(c2noc(C34CCC(OCc5c(-c6c(Cl)cncc6Cl)noc5C5CC5)(CC3)CC4)n2)CC1` [Example 271, 1-(5-(4-((5-cyclopropyl-3-(3,5-dichloropyridin-4-yl)isoxazol-4-yl)methoxy)bicyclo[2.2.2]octan-1-yl)-1,2,4-oxadiazol-3-yl)cyclopropane-1-carboxylic acid] gave a negative-log EC50 (pEC50) of 5.96.

`Cn1cc(C(=O)O)c2ccc(C34CCC(OCc5c(-c6c(Cl)cccc6Cl)noc5C5CC5)(CC3)CC4)nc21` [Example 135, 6-(4-((5-cyclopropyl-3-(2,6-dichlorophenyl)isoxazol-4-yl)methoxy)bicyclo[2.2.2]octan-1-yl)-1-methyl-1H-pyrrolo[2,3-b]pyridine-3-carboxylic acid] gave a pEC50 of 8.05.

In turn, `O=C(O)c1cccc(-c2noc(C34CCC(OCc5c(-c6c(Cl)cncc6Cl)noc5C5CC5)(CC3)CC4)n2)c1` [Example 232, 3-(5-(4-((5-cyclopropyl-3-(3,5-dichloropyridin-4-yl)isoxazol-4-yl)methoxy)bicyclo[2.2.2]octan-1-yl)-1,2,4-oxadiazol-3-yl)benzoic acid] showed a pEC50 of 7.00.

Regarding `COc1cc(C(=O)O)nc2ccc(OCC34CCC(OCc5c(-c6ccccc6C(F)(F)F)noc5C5CC5)(CC3)CC4)cc12` [Example 289], the pEC50 is 6.82.

`CC(C)COc1cc(C(=O)O)nc2ccc(OCC34CCC(OCc5c(-c6c(Cl)cncc6Cl)noc5C5CC5)(CC3)CC4)cc12` [Example 355] showed a negative logarithm of the EC50 (pEC50) of 7.74.

Take `O=C(O)c1ccc(OC2CCOCC2)c2nc(C34CCC(OCc5c(-c6c(Cl)cncc6Cl)noc5C5CC5)(CC3)CC4)ccc12` [Example 414]: the pEC50 is 7.54.

Regarding `O=C(O)c1cc(F)c2nc(OCC34CCC(OCc5c(-c6c(Cl)cccc6Cl)noc5C5CC5)(CC3)CC4)sc2c1` [Example 83, 2-((4-((5-cyclopropyl-3-(2,6-dichlorophenyl)isoxazol-4-yl)methoxy)bicyclo[2.2.2]octan-1-yl)methoxy)-4-fluorobenzo[d]thiazole-6-carboxylic acid], the negative-log EC50 (pEC50) is 7.74.

On to `Cc1nc(C#CC23CCC(OCc4c(-c5c(Cl)cncc5Cl)noc4C4CC4)(CC2)CC3)ccc1C(=O)O` [Example 417], for which the negative logarithm of the EC50 (pEC50) was 6.52.

The compound `O=C(O)[C@@H]1CCC[C@H](OCC23CCC(OCc4c(-c5ccccc5OC(F)(F)F)noc4C4CC4)(CC2)CC3)C1` [Example 80] gave a pEC50 of 5.29.

`CCc1cc(C(=O)O)nc2ccc(OCC34CCC(OCc5c(-c6c(Cl)cncc6Cl)noc5C5CC5)(CC3)CC4)cc12` [Example 347] gave a pEC50 of 7.62.
